Assay results published in ChEMBL document CHEMBL4840312, “Discovery of memantyl urea derivatives as potent soluble epoxide hydrolase inhibitors against lipopolysaccharide-induced sepsis” (Eur J Med Chem, 2021).

Legend:
[1] = biological target: T1, Bifunctional epoxide hydrolase 2 (Mus musculus, UniProt P34914)
T1 sequence (P34914 whole entry): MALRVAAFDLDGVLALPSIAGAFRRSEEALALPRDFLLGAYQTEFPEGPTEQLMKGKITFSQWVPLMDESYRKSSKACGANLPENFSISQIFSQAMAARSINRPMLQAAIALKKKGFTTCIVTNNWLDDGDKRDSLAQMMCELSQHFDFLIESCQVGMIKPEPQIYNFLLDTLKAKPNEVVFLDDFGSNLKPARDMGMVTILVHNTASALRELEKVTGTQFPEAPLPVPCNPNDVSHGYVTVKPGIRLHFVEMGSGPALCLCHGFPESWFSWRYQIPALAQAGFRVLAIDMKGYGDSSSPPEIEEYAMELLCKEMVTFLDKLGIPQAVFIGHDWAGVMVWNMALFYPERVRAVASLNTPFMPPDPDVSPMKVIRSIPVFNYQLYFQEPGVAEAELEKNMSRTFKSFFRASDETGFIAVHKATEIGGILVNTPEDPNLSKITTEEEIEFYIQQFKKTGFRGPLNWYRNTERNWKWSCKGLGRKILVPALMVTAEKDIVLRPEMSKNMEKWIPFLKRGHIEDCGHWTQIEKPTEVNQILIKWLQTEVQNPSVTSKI
Description: Inhibition of mouse recombinant sEH using PHOME as substrate measured after 10 mins by fluorescent based assay

[2] = biological target: T2, Bifunctional epoxide hydrolase 2 (Homo sapiens, UniProt P34913)
T2 sequence (P34913 whole entry): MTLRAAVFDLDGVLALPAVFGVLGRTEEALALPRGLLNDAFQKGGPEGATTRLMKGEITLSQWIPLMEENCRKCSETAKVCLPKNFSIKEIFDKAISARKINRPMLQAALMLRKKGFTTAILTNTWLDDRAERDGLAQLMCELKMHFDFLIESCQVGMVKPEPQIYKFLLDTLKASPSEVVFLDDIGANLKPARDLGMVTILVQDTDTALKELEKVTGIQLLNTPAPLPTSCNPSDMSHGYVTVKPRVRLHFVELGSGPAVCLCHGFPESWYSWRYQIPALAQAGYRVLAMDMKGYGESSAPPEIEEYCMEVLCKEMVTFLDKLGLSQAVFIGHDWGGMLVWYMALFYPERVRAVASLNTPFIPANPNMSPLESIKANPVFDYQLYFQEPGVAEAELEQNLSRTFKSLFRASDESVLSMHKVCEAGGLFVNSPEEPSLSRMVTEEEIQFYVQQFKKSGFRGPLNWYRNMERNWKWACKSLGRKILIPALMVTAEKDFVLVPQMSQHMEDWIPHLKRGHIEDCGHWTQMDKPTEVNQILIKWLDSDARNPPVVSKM
Description: Inhibition of human recombinant sEH using PHOME as substrate measured after 10 mins by fluorescent based assay

[3] = Acute toxicity in ICR mouse assessed as body weight at 100 mg/kg, ip administered as single dose observed for 14 days; format: organism-based; conditions: in vivo, 336 h, time 14 day
[4] = AUC (0 to 24 hrs) in Sprague-Dawley rat at 30 mg/kg, po administered as single dose upto 24 hrs by LC-MS analysis; format: ADME, organism-based; parameters: route oral, dose 30 mg/kg, time <=24; conditions: in vivo
[5] = Microsomal stability in human liver microsomes assessed as substrate remaining in presence of NADPH measured after 5 mins by LC-MS/MS analysis
[6] = AUC (0 to 24 hrs) in Sprague-Dawley rat at 3 mg/kg, iv administered as single dose upto 24 hrs by LC-MS analysis; format: ADME, organism-based; parameters: route intravenous, dose 3 mg/kg, time <=24; conditions: in vivo
[7] = Microsomal stability in human liver microsomes assessed as substrate remaining in presence of NADPH measured after 60 mins by LC-MS/MS analysis; conditions: 1 h
[8] = Cmax in Sprague-Dawley rat at 30 mg/kg, po administered as single dose upto 24 hrs by LC-MS analysis; format: ADME, organism-based; parameters: route oral, dose 30 mg/kg, time <=24; conditions: in vivo
[9] = AUC (0 to infinity) in Sprague-Dawley rat at 30 mg/kg, po administered as single dose upto 24 hrs by LC-MS analysis; format: ADME, organism-based; parameters: route oral, dose 30 mg/kg, time <=24; conditions: in vivo
[10] = Clearance in Sprague-Dawley rat at 3 mg/kg, iv administered as single dose upto 24 hrs by LC-MS analysis; format: ADME, organism-based; conditions: in vivo
[11] = Reversible toxicity in ICR mouse assessed as eye secretion at 100 mg/kg, ip administered as single dose observed for 14 days; format: organism-based; conditions: in vivo, 336 h, time 14 day
[12] = Volume of distribution in Sprague-Dawley rat at 30 mg/kg, po administered as single dose upto 24 hrs by LC-MS analysis; format: ADME, organism-based; conditions: in vivo
[13] = Volume of distribution in Sprague-Dawley rat at 3 mg/kg, iv administered as single dose upto 24 hrs by LC-MS analysis; format: ADME, organism-based; conditions: in vivo
[14] = Microsomal stability in human liver microsomes assessed as substrate remaining in presence of NADPH measured after 10 mins by LC-MS/MS analysis
[15] = Microsomal stability in human liver microsomes assessed as substrate remaining in presence of NADPH measured after 30 mins by LC-MS/MS analysis; conditions: 0.5 h
[16] = Cmax in Sprague-Dawley rat at 3 mg/kg, iv administered as single dose upto 24 hrs by LC-MS analysis; format: ADME, organism-based; parameters: route intravenous, dose 3 mg/kg, time <=24; conditions: in vivo
[17] = Microsomal stability in human liver microsomes assessed as substrate remaining in presence of NADPH measured after 20 mins by LC-MS/MS analysis
[18] = Clearance in Sprague-Dawley rat at 30 mg/kg, po administered as single dose upto 24 hrs by LC-MS analysis; format: ADME, organism-based; conditions: in vivo
[19] = test system: Mus musculus; assay: Effect on C57BL/6 mouse model of LPS induced sepsis assessed as survival rate in 24 hrs at 5 mg/kg, ip (reference value: 71.4%); format: functional; conditions: C57BL/6, ip
[20] = test system: Mus musculus; assay: Effect on C57BL/6 mouse model of LPS induced sepsis assessed as survival rate in 72 hrs at 5 mg/kg, ip (reference value: 28.6%); format: functional; conditions: C57BL/6, ip

SMILES | IC50 [1] | IC50 [2] | also measured
CC12CC3CC(C)(C1)CC(NC(=O)CCC(=O)N1CCCCC1)(C3)C2 | 21700 nM | 2470 nM | –
O=C(Nc1ccc(C(=O)N2CCCCC2)cc1)NC1C2CC3CC1CC(O)(C3)C2 (centres undefined) | 497 nM | 217 nM | –
CC(C)CNC(=O)c1ccc(C(=O)NC23CC4CC(C)(CC(C)(C4)C2)C3)cc1 | 6540 nM | > 100000 nM | –
CC(NC(=O)Nc1ccc(C(=O)NC2CCCCC2)cc1)C12CC3CC(CC(C3)C1)C2 (centres undefined) | 13.7 nM | 217 nM | –
CC12CC3CC(C)(C1)CC(NC(=O)Nc1ccc(C(=O)NC4CCCCC4)cc1)(C3)C2 | 0.4 nM | 2.3 nM | Activity [3]: Non-Toxic
CC(C)CNC(=O)c1ccc(NC(=O)NC23CC4CC(CC(O)(C4)C2)C3)cc1 | 291 nM | 949 nM | –
CC12CC3CC(C)(C1)CC(NC(=O)/C=C\C(=O)N1CCCCC1)(C3)C2 | 81200 nM | 21500 nM | –
CC12CC3CC(C)(C1)CC(NC(=O)Nc1ccc(C(=O)N4CCCCC4)cc1)(C3)C2 | – | – | AUC(0-t) [4]: 1.3 µM·h; residual activity [5]: 58.9%; AUC(0-t) [6]: 1.83 µM·h; residual activity [7]: 12.4%; Cmax [8]: 330 nM; AUC [9]: 1.305 µM·h; CLH [10]: 71.7 mL/min/kg; Activity [11]: Toxic; Vd [12]: 1097.8 L/kg; Vd [13]: 7.83 L/kg; residual activity [14]: 43%; residual activity [15]: 17.1%; Cmax [16]: 3640 nM; residual activity [17]: 26.4%; CLH [18]: 4496.5 mL/min/kg
CC12CC3CC(C)(C1)CC(NC(=O)CCCC(=O)NC1CCCCC1)(C3)C2 | 8.3 nM | 1590 nM | –
CC12CC3CC(C)(C1)CC(NC(=O)/C=C/C(=O)NC1CCCCC1)(C3)C2 | 5520 nM | 24400 nM | –
C[C@@H]1C[C@H]2[C@@H]3CCC4=CC(=O)C=C[C@]4(C)[C@@]3(F)[C@@H](O)C[C@]2(C)[C@@]1(O)C(=O)CO [DEXAMETHASONE] | – | – | survival at 5 mg/kg [19]: 100%; survival at 5 mg/kg [20]: 100%
CC12CC3CC(C)(C1)CC(NC(=O)c1ccc(C(=O)N4CCCCC4)cc1)(C3)C2 | 60700 nM | 26400 nM | –
CC(C)CNC(=O)c1ccc(NC(=O)NC2C3CC4CC(C3)CC2C4)cc1 (centres undefined) | 0.4 nM | 0.9 nM | Activity [3]: Non-Toxic; Activity [11]: Toxic
CC(C)CNC(=O)/C=C/C(=O)NC12CC3CC(C)(CC(C)(C3)C1)C2 | 21100 nM | 9620 nM | –
CC(NC(=O)Nc1ccc(C(=O)N2CCCCC2)cc1)C12CC3CC(CC(C3)C1)C2 (centres undefined) | 2.4 nM | 3.9 nM | –
CC12CC3CC(C)(C1)CC(NC(=O)c1ccc(C(=O)NC4CCCCC4)cc1)(C3)C2 | 1020 nM | 6290 nM | –
CC(C)CNC(=O)CCCC(=O)NC1C2CC3CC(C2)CC1C3 (centres undefined) | 2270 nM | 3580 nM | –

SMILES | IC50 [1] | IC50 [2] | also measured
CC(C)CNC(=O)CCCC(=O)NC(C)C12CC3CC(CC(C3)C1)C2 (centres undefined) | 694 nM | 7320 nM | –
CC(C)CNC(=O)c1ccc(NC(=O)NC(C)C23CC4CC(CC(C4)C2)C3)cc1 (centres undefined) | 28.8 nM | 59.8 nM | –
O=C(Nc1ccc(C(=O)NC2CCCCC2)cc1)NC12CC3CC(CC(O)(C3)C1)C2 | 94.2 nM | 796 nM | –
CC(=O)N1CCC(NC(=O)NC23CC4CC(CC(C4)C2)C3)CC1 [AR9281] | – | – | Activity [11]: Toxic
CC(C)CNC(=O)c1ccc(NC(=O)NC2C3CC4CC2CC(O)(C4)C3)cc1 (centres undefined) | 2350 nM | 249 nM | –
CC(C)CNC(=O)c1ccc(NC(=O)NC23CC4CC(C)(CC(C)(C4)C2)C3)cc1 | 0.4 nM | 0.7 nM | Activity [3]: Non-Toxic
CC12CC3CC(C)(C1)CC(NC(=O)CCC(=O)NC1CCCCC1)(C3)C2 | 180 nM | 7890 nM | –
O=C(Nc1ccc(C(=O)NC2CCCCC2)cc1)NC1C2CC3CC1CC(O)(C3)C2 (centres undefined) | 463 nM | 493 nM | –
O=C(Nc1ccc(C(=O)N2CCCCC2)cc1)NC1C2CC3CC(C2)CC1C3 (centres undefined) | 0.4 nM | 0.4 nM | Activity [3]: Non-Toxic
O=C(Nc1ccc(C(=O)N2CCCCC2)cc1)NC12CC3CC(CC(O)(C3)C1)C2 | 88.8 nM | 120 nM | –
CC(C)CNC(=O)CCCC(=O)NC12CC3CC(C)(CC(C)(C3)C1)C2 | 225 nM | 6230 nM | –
CC(C)CNC(=O)CCCC(=O)NC1C2CC3CC1CC(O)(C3)C2 (centres undefined) | 106 nM | 41.6 nM | –
O=C(Nc1ccc(C(=O)NC2CCCCC2)cc1)NC1C2CC3CC(C2)CC1C3 (centres undefined) | 0.4 nM | 1.4 nM | Activity [11]: Toxic
CC(C)CNC(=O)CCC(=O)NC12CC3CC(C)(CC(C)(C3)C1)C2 | 4130 nM | 18900 nM | –
CC(C)CNC(=O)CCC(=O)NC(C)C12CC3CC(CC(C3)C1)C2 (centres undefined) | 43.5 nM | 50.8 nM | –
CC12CC3CC(C)(C1)CC(NC(=O)CCCC(=O)N1CCCCC1)(C3)C2 | 5840 nM | 5930 nM | –
